The record followed here is ChEMBL document CHEMBL4765474, “Discovery of a "Gatekeeper" Antagonist that Blocks Entry Pathway to Retinoid X Receptors (RXRs) without Allosteric Ligand Inhibition in Permissive RXR Heterodimers” (J Med Chem, 2021).

As a reminder, the Kd is the free concentration of one partner at which half of the binding sites on the other are occupied at equilibrium, for simple one-to-one binding. Broadly, the Ki is a measure of affinity in units of concentration, obtained from inhibition or displacement.

The target of assay [1] is T1, Retinoic acid receptor RXR-alpha (Homo sapiens, UniProt P19793).
T1 sequence (P19793 whole entry): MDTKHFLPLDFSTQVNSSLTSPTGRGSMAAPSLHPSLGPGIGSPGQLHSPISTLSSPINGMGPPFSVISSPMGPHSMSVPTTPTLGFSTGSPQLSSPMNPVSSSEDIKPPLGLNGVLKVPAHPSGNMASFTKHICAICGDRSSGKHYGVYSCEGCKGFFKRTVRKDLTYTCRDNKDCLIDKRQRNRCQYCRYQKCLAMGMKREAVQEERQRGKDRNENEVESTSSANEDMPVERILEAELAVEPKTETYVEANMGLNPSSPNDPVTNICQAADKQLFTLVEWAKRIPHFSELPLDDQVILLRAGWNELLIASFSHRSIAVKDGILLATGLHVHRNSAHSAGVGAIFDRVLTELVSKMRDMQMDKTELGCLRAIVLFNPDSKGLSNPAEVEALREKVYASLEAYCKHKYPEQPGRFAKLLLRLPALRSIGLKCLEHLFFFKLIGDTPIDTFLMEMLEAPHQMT
Nature of the assay: Competitive antagonist activity at human RXRA/RXRA expressed in African green monkey COS7 cells assessed as reduction in bexarotene-induced receptor activation by RXRE-dependent luciferase reporter gene assay. The settings on record: read-out: pA2 (converted). It counts as cell-based. (In general: A reporter such as luciferase makes a cellular process visible.)

In assay [2] the target is RXR alpha/PPAR gamma (Homo sapiens, UniProt P19793). Nature of the assay: Competitive antagonist activity at human PPAR-gamma/RXRA expressed in African green monkey COS7 cells assessed as reduction in bexarotene-induced receptor activation by RXRE-dependent luciferase reporter gene assay. The class given is cell-based. The settings on record: read-out: pA2 (converted).

The target in assay [3] is T2, Retinoic acid receptor RXR-alpha/oxysterols receptor LXR-alpha (Homo sapiens, UniProt P19793).
T2 sequence (P19793 whole entry): T1 sequence (P19793 whole entry)
T2 sequence (Q13133 whole entry): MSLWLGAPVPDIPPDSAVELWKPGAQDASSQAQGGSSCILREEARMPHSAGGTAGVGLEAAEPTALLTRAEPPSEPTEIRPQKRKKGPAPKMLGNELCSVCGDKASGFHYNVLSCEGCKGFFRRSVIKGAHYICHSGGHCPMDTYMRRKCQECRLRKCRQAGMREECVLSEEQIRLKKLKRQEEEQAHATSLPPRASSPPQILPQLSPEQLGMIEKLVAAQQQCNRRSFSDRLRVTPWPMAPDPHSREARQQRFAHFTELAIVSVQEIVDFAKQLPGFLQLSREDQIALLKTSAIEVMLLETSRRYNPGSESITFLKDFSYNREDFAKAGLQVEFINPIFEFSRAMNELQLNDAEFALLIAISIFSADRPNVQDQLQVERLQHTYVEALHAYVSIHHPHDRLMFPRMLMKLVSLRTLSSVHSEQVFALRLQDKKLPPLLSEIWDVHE
Nature of the assay: Competitive antagonist activity at human LXR-alpha/RXRA expressed in African green monkey COS7 cells assessed as reduction in bexarotene-induced receptor activation by RXRE-dependent luciferase reporter gene assay. The following applies: read-out: pA2 (converted). The class given is cell-based.

Assay [4] has as its target T1, Retinoic acid receptor RXR-alpha. The experiment in a line: Binding affinity to human RXR-alpha LBD incubated for 2 hrs by tryptophan fluorescence quenching assay.
Assay [5] shares this target. The experiment in a line: Displacement of [3H]-9-cis retinoic acid from recombinant human RXR-alpha LBD by liquid scintillation counting based competitive ligand binding assay.
Assay [6] has the same target. Nature of the assay: Binding affinity to human RXR-alpha by ITC analysis. (Isothermal titration calorimetry measures the heat released or taken up as one component is titrated into another.)

Chain of RXR alpha/PPAR gamma (P37231 whole entry, one chain of several): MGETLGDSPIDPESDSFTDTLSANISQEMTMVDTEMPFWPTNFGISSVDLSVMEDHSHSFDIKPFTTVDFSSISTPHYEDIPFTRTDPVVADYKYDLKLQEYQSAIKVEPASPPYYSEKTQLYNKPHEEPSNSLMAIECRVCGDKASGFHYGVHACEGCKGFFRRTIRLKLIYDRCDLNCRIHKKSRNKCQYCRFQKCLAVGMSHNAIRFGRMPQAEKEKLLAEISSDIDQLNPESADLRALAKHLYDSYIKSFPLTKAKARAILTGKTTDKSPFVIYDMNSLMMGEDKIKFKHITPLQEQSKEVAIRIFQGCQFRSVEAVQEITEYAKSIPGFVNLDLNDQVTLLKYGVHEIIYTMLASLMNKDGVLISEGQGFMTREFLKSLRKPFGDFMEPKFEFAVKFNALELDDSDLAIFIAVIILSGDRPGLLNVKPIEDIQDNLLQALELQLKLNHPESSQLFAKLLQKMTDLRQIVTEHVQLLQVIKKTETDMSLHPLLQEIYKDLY

Regarding `CCCCCCOc1cc2c(cc1N(C)c1ncc(C(=O)O)cn1)C(C)(C)CCC2(C)C`, the Kb in assay [1] was 0.0631 µM; in assay [2], 0.01 µM; in assay [3] it was 0.302 µM. Besides, the Kd in assay [4] was 0.26 µM; in assay [6], 1.35 µM. In addition, the inhibition constant Ki in assay [5] came out at 1.34 µM.
